Test results: the supplement of paper PMC10307832

Compound: CC(C)=CC[C@@H](O)C1=CC(=O)c2c(O)ccc(O)c2C1=O [Shikonin] + CC(=O)Nc1cccc(-n2c(=O)n(C3CC3)c(=O)c3c(Nc4ccc(I)cc4F)n(C)c(=O)c(C)c32)c1 [Trametinib] (partner 0.02 µM)
Assay: relative viability (nuclei count vs DMSO), 5 days (fraction); higher = more cells survive
Conditions: first compound 0.01 µM
In short: (§1)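 For relative viability, nuclei counts in treated wells were divided by those in vehicle wells. Lung cancer cell lines had been pin-tool dosed in 1536-well plates the day after seeding and cultured for 5 days, then fixed and stained in one step (final 0.05% Triton X-100, 1% formaldehyde, 1 ug/ml Hoechst) and imaged at 4×. Doses were one drug alone or a fixed anchor-drug dose plus five library-drug doses (not always all listed) in √10 steps, and values are duplicate-plate medians.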

In order of rising relative viability:
1. NCI-H358  0.124
2. CAL-12T  0.346
3. NCI-H1944  0.382
4. NCI-H1793  0.393
5. HARA  0.68
6. SW 900  0.809
7. NCI-H1395  0.994

Same assay, conditions: first compound 0.1 µM

In order of rising relative viability:
1. NCI-H358  0.124
2. NCI-H2087  0.194
3. NCI-H2009  0.292
4. NCI-H3122  0.292
5. NCI-H647  0.356
6. HCC-366  0.363
7. HOP-62  0.374
8. CAL-12T  0.376
9. NCI-H1793  0.414
10. NCI-H1944  0.431
11. NCI-H2228  0.441
12. COR-L 105  0.445
13. NCI-H1650  0.492
14. NCI-H1993  0.516
15. HARA  0.54
16. H3255  0.544
17. NCI-H2126  0.553
18. LU99A  0.563
19. SK-MES-1  0.57
20. NCI-H520  0.631
21. LCLC-103H  0.683
22. COR-L23  0.685
23. NCI-H2342  0.686
24. PC-3 [JPC-3]  0.688
25. NCI-H522  0.747
26. LOU-NH91  0.839
27. NCI-H1666  0.855
28. PC-14  0.9
29. SW 900  0.934
30. LK-2  0.935
31. EMC-BAC-2  0.947
32. NCI-H2170  0.97
33. ChaGo-K-1  0.98
34. HCC-44  1.01
35. BEN  1.06
36. NCI-H1395  1.18
37. NCI-H650  1.19

Same assay, conditions: first compound 0.3162 µM

In order of falling relative viability:
1. NCI-H1395  1.09
2. BEN  1.03
3. NCI-H1666  1.02
4. EMC-BAC-2  1
5. NCI-H650  0.996
6. HCC-44  0.996
7. SW 900  0.969
8. NCI-H2170  0.959
9. ChaGo-K-1  0.903
10. PC-14  0.893
11. HARA  0.893
12. NCI-H2342  0.88
13. NCI-H522  0.871
14. LOU-NH91  0.838
15. LK-2  0.799
16. NCI-H520  0.677
17. PC-3 [JPC-3]  0.669
18. LCLC-103H  0.663
19. COR-L23  0.622
20. H3255  0.613
21. NCI-H2126  0.607
22. SK-MES-1  0.575
23. LU99A  0.567
24. NCI-H1993  0.563
25. NCI-H2228  0.536
26. NCI-H1650  0.523
27. NCI-H1648  0.464
28. NCI-H647  0.443
29. COR-L 105  0.442
30. NCI-H1944  0.415
31. HOP-62  0.394
32. NCI-H1793  0.392
33. HCC-366  0.336
34. NCI-H2009  0.245
35. CAL-12T  0.243
36. NCI-H3122  0.211
37. NCI-H2087  0.189
38. NCI-H358  0.121

Same assay, conditions: first compound 1 µM

In order of falling relative viability:
1. BEN  1.19
2. HCC-44  1.08
3. NCI-H650  0.982
4. NCI-H2170  0.981
5. ChaGo-K-1  0.972
6. NCI-H1395  0.923
7. EMC-BAC-2  0.851
8. NCI-H2342  0.843
9. LOU-NH91  0.791
10. NCI-H1666  0.772
11. PC-14  0.769
12. SW 900  0.741
13. LK-2  0.732
14. SK-MES-1  0.71
15. LCLC-103H  0.698
16. NCI-H520  0.679
17. NCI-H522  0.646
18. HARA  0.627
19. PC-3 [JPC-3]  0.616
20. NCI-H2126  0.571
21. NCI-H1993  0.568
22. H3255  0.548
23. COR-L23  0.508
24. NCI-H1648  0.503
25. NCI-H2228  0.494
26. NCI-H1650  0.491
27. LU99A  0.478
28. NCI-H1944  0.469
29. NCI-H647  0.451
30. HCC-366  0.451
31. NCI-H1793  0.417
32. HOP-62  0.401
33. COR-L 105  0.387
34. CAL-12T  0.28
35. NCI-H3122  0.266
36. NCI-H2009  0.254
37. NCI-H2087  0.18
38. NCI-H358  0.126

Compound: CC(C)N(CCCNC(=O)Nc1ccc(C(C)(C)C)cc1)C[C@H]1O[C@@H](n2ccc3c(N)ncnc32)[C@H](O)[C@@H]1O + C[C@@H](Oc1cc(-c2cnn(C3CCNCC3)c2)cnc1N)c1c(Cl)ccc(F)c1Cl [Crizotinib] (partner 1 µM)
Assay: as above
Conditions: first compound 0.08 µM
In short: as §1

In order of falling relative viability:
1. ChaGo-K-1  1.16
2. NCI-H2170  1.12
3. NCI-H1944  1.09
4. NCI-H2009  1.03
5. NCI-H1666  1.02
6. NCI-H647  1.01
7. NCI-H2126  1.01
8. PC-3 [JPC-3]  0.991
9. SK-MES-1  0.991
10. HARA  0.991
11. NCI-H2087  0.981
12. LCLC-103H  0.946
13. NCI-H1299  0.927
14. HOP-62  0.926
15. NCI-H1650  0.925
16. PC-14  0.907
17. IA-LM  0.868
18. BEN  0.836
19. ABC-1  0.816
20. NCI-H1563  0.813
21. NCI-H520  0.789
22. HCC-44  0.788
23. NCI-H1993  0.767
24. H3255  0.763
25. LOU-NH91  0.755
26. Calu-6  0.744
27. EMC-BAC-2  0.729
28. A549  0.7
29. COR-L 105  0.671
30. LU99A  0.661
31. NCI-H1703  0.635
32. NCI-H650  0.63
33. CAL-12T  0.626
34. NCI-H358  0.614
35. COR-L23  0.601
36. NCI-H2228  0.586
37. HCC-366  0.375
38. NCI-H3122  0.349
39. LK-2  0.269
40. EBC-1  0.207

Same assay, conditions: first compound 0.253 µM

In order of rising relative viability:
1. EBC-1  0.199
2. LK-2  0.232
3. NCI-H3122  0.299
4. HCC-366  0.545
5. NCI-H520  0.548
6. CAL-12T  0.548
7. NCI-H358  0.554
8. LU99A  0.571
9. A549  0.609
10. NCI-H1703  0.61
11. NCI-H650  0.709
12. COR-L23  0.724
13. EMC-BAC-2  0.727
14. LOU-NH91  0.735
15. IA-LM  0.747
16. H3255  0.76
17. BEN  0.768
18. COR-L 105  0.823
19. Calu-6  0.863
20. HCC-44  0.864
21. PC-14  0.881
22. ABC-1  0.926
23. LCLC-103H  0.93
24. NCI-H1993  0.935
25. NCI-H1299  0.941
26. NCI-H1563  0.963
27. HARA  0.968
28. NCI-H2009  0.971
29. HOP-62  0.982
30. NCI-H1666  0.983
31. NCI-H2126  0.986
32. PC-3 [JPC-3]  0.994
33. NCI-H2087  1.04
34. NCI-H1650  1.05
35. SK-MES-1  1.05
36. NCI-H1944  1.09
37. NCI-H2170  1.18
38. ChaGo-K-1  1.22

Same assay, conditions: first compound 0.8 µM

In order of rising relative viability:
1. EBC-1  0.18
2. LK-2  0.217
3. NCI-H3122  0.285
4. NCI-H2228  0.468
5. LU99A  0.513
6. CAL-12T  0.63
7. HCC-366  0.654
8. EMC-BAC-2  0.655
9. NCI-H1703  0.685
10. NCI-H358  0.717
11. A549  0.739
12. COR-L23  0.765
13. NCI-H650  0.785
14. Calu-6  0.79
15. NCI-H1563  0.804
16. COR-L 105  0.82
17. BEN  0.825
18. HCC-44  0.832
19. IA-LM  0.84
20. NCI-H520  0.858
21. NCI-H1993  0.877
22. HOP-62  0.882
23. PC-3 [JPC-3]  0.885
24. LCLC-103H  0.914
25. HARA  0.927
26. NCI-H1299  0.946
27. NCI-H1666  0.953
28. H3255  0.959
29. PC-14  0.97
30. SK-MES-1  1.01
31. NCI-H647  1.05
32. NCI-H2126  1.06
33. NCI-H2009  1.08
34. NCI-H1944  1.14
35. NCI-H2087  1.16
36. ChaGo-K-1  1.2
37. NCI-H2170  1.22

Same assay, conditions: first compound 2.53 µM

In order of falling relative viability:
1. ABC-1  1.26
2. NCI-H2170  1.19
3. NCI-H647  1.15
4. ChaGo-K-1  1.14
5. NCI-H1944  1.13
6. HARA  1.1
7. NCI-H1650  1.06
8. NCI-H1666  1.02
9. LCLC-103H  1
10. NCI-H2009  0.999
11. SK-MES-1  0.997
12. NCI-H2126  0.992
13. NCI-H1299  0.99
14. PC-3 [JPC-3]  0.977
15. NCI-H2087  0.945
16. PC-14  0.943
17. IA-LM  0.939
18. HCC-44  0.859
19. NCI-H1993  0.841
20. NCI-H1563  0.812
21. Calu-6  0.771
22. COR-L23  0.755
23. HOP-62  0.748
24. COR-L 105  0.724
25. NCI-H650  0.719
26. H3255  0.717
27. BEN  0.715
28. A549  0.708
29. NCI-H520  0.707
30. LOU-NH91  0.7
31. NCI-H1703  0.647
32. EMC-BAC-2  0.643
33. NCI-H358  0.589
34. CAL-12T  0.563
35. NCI-H2228  0.543
36. HCC-366  0.526
37. LU99A  0.524
38. NCI-H3122  0.3
39. LK-2  0.261
40. EBC-1  0.178

Same assay, conditions: first compound 8 µM

In order of rising relative viability:
1. EBC-1  0.171
2. LK-2  0.229
3. NCI-H3122  0.277
4. NCI-H2228  0.44
5. NCI-H358  0.448
6. HCC-366  0.478
7. NCI-H1703  0.491
8. LU99A  0.498
9. CAL-12T  0.529
10. COR-L23  0.574
11. IA-LM  0.644
12. EMC-BAC-2  0.707
13. A549  0.714
14. LOU-NH91  0.721
15. PC-14  0.723
16. NCI-H650  0.724
17. NCI-H520  0.733
18. H3255  0.735
19. HCC-44  0.744
20. NCI-H1666  0.76
21. Calu-6  0.781
22. NCI-H2087  0.795
23. NCI-H1563  0.82
24. COR-L 105  0.846
25. LCLC-103H  0.872
26. NCI-H1993  0.888
27. NCI-H1299  0.9
28. HOP-62  0.915
29. PC-3 [JPC-3]  0.917
30. BEN  0.921
31. NCI-H647  0.953
32. SK-MES-1  0.956
33. NCI-H2126  0.959
34. NCI-H1650  0.986
35. HARA  0.988
36. NCI-H2009  1.08
37. ChaGo-K-1  1.08
38. NCI-H1944  1.1
39. ABC-1  1.13
40. NCI-H2170  1.28
